For the assay, the target named is T1, endo β-1,4-D-glucanase.
T1 construct: gene egl1; native secreted enzyme purified from solid state culture (ammonium sulfate, DEAE-Sepharose, Sephadex G-100); ~55 kDa on SDS-PAGE, monomer
In words: inhibition of CMC hydrolysis, DNS reducing sugar assay, Lineweaver-Burk plot. It is filed as biochemical, Trichoderma harzianum. Particulars: competitive; substrate carboxymethyl cellulose; cellobiose 5 and 10 mM. The text has this:
inhibition of CMC hydrolysis, DNS reducing sugar assay, Lineweaver-Burk plot on endo β-1,4-D-glucanase | cellobiose to be competitive inhibitor of endo β-1,4-D-glucanase in the presence of CMC substrate

Broadly, the Ki is the equilibrium dissociation constant of an inhibitor or competing ligand from its target. Read a low Ki as tighter binding.

On to `OC[C@H]1O[C@@H](O[C@H]2[C@H](O)[C@@H](O)C(O)O[C@@H]2CO)[C@H](O)[C@@H](O)[C@@H]1O` (stereo partly shown) [cellobiose], for which the inhibition constant Ki is 66 mM.

The record behind these values is article PMC4829572, “Purification and characterization of endo β-1,4-D-glucanase from Trichoderma harzianum strain HZN11 and its application in production of bioethanol from sweet sorghum bagasse” (3 Biotech, 2016).
